Measured values reported in article PMC3586205 (European journal of pharmacology, 2012).
Like-named read-outs stand apart in the source and are kept apart here.

Assays:
[1] = tested on: food intake in mice; assay: Feeding behavior: 1-h food intake after 24-h food deprivation; format: in vivo; conditions: for decrease in feeding compared to vehicle: 60 min pre-session, significant; for effect on food intake: doses up to 30 mg/kg i.p.; for dose that significantly decreased feeding: i.p.
[2] = target: human cannabinoid CB1 receptor (Homo sapiens, UniProt P21554); conditions: read-out: CB1 Ki (± SEM), displacement of [3H]CP55,940, cited from earlier work
human cannabinoid CB1 receptor, sequence (P21554 whole entry): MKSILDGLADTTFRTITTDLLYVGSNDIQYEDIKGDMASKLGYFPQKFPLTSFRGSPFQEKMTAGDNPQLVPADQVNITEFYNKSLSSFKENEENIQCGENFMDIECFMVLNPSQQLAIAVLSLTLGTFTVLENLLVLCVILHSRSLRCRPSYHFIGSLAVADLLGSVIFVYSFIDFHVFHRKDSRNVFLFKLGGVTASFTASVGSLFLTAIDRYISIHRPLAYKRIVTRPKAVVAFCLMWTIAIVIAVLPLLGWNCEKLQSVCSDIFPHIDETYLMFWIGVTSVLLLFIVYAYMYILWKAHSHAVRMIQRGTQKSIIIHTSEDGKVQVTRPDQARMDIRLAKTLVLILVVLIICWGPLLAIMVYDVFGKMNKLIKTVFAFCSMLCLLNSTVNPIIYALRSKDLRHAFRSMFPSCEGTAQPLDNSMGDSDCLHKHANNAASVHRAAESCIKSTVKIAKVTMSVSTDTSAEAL

[3] = target: human cannabinoid CB2 receptor (Homo sapiens, UniProt P34972); conditions: read-out: CB2 Ki (± SEM), displacement of [3H]CP55,940, cited from earlier work
human cannabinoid CB2 receptor, sequence (P34972 whole entry): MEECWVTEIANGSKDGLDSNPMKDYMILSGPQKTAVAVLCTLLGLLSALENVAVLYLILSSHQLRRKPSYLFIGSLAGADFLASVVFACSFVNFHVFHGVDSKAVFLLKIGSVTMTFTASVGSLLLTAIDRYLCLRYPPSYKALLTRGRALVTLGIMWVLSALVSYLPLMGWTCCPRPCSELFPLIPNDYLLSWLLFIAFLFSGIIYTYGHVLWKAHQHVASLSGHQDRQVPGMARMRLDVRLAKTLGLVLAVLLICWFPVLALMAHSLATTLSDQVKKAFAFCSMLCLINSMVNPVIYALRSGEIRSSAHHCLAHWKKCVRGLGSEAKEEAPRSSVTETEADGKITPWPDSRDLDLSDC

[4] = tested on: spontaneous activity in mice; conditions: cited from earlier work; for SA, % inhibition of activity of vehicle control group (maximum effect): 10 mg/kg i.v., stim=stimulation; for SA ED50 (95% confidence limits): i.v.
[5] = tested on: tail flick latency in mice; conditions: cited from earlier work; for %MPE, maximum possible antinociceptive effect in tail flick (maximum effect): 10 mg/kg i.v.; for %MPE tail flick ED50 (95% confidence limits): i.v., ref Wiley et al. (2011)
[6] = tested on: ring immobility in mice; conditions: cited from earlier work
[7] = tested on: cannabinoid agonist-like effects in mice; conditions: cited from earlier work; for % of maximal cannabinoid agonist-like activity in each of the four tests: ref Wiley et al. (2012); for profile in test battery: ref Wiley et al. (2011)
[8] = tested on: rectal temperature in mice; conditions: cited from earlier work; for RT ED50 (95% confidence limits): i.v.
[9] = 3 mg/kg i.v., ref Wiley et al. (2012)
[10] = 10 mg/kg i.v., ref Wiley et al. (2012)
[11] = 30 mg/kg i.v., ref Wiley et al. (2001)

3-bromopropyl carboxamide analog [Compound O-2154]
decrease in feeding compared to vehicle ([1]; 56 mg/kg i.p.): 60%
Ki ([2]; ref Wiley et al. (2012)): 38 nM
Ki ([3]; ref Wiley et al. (2012)): 731 nM
SA, % inhibition of activity of vehicle control group (single dose) [4, 9]: 70% (3)
%MPE in tail flick (single dose) [5, 9]: 50% (3)
RI, % time immobile (single dose) [6, 9]: 35% (3)
% of maximal cannabinoid agonist-like activity in each of the four tests ([7]; 3 mg/kg): at least 50%

3-cyanopropyl carboxamide analog [Compound O-2155]
decrease in feeding compared to vehicle ([1]; 30 mg/kg i.p.): 55%
Ki ([2]; ref Wiley et al. (2012)): 222 nM
Ki ([3]; ref Wiley et al. (2012)): 1850 nM
SA, % inhibition of activity of vehicle control group (maximum effect) ([4]; ref Wiley et al. (2012)): 86% (10)
%MPE, maximum possible antinociceptive effect in tail flick (maximum effect) ([5]; ref Wiley et al. (2012)): 89% (10)
RI, % time immobile on elevated ring (maximum effect) [6, 10]: 47% (10)
% of maximal cannabinoid agonist-like activity in each of the four tests ([7]; 10 mg/kg): at least 50%

Cc1c(C(=O)NCC2CCC(CNS(C)(=O)=O)CC2)nn(-c2ccc(Cl)cc2Cl)c1-c1ccc(Cl)cc1 (stereo not shown) [13226–70, 5-(4-chlorophenyl)-1-(2,4-dichlorophenyl)–N-{[4-(methanesulfonamido-methyl)cyclohexyl]methyl}-4-methyl-1H-pyrazole-3-carboxamide]
effect on food intake [1]: failed to alter food intake

CCCCC(C)c1ccc(-c2c(C)c(C(=O)NN3CCCCC3)nn2-c2ccc(Cl)cc2Cl)cc1 (stereo not shown) [Compound O-1690, 1-(2,4-dichlorophenyl)-5-[4-(hexan-2-yl)phenyl]-4-methyl-N-(piperidin-1-yl)-1H-pyrazole-3-carboxamide]
effect on food intake [1]: did not alter food intake
Ki ([2]; ref Wiley et al. (2001)): 2.6 nM
SA (maximum effect) [4, 11]: inactive (30)
%MPE tail flick (maximum effect) [5, 11]: inactive (30)
RT (maximum effect) [8, 11]: inactive (30)
RI (maximum effect) [6, 11]: inactive (30)
activity in test battery when tested alone ([7]; ref Wiley et al., 2001): inactive

CCS(=O)(=O)NCCCC#CCc1cc(O)c2c(c1)OC(C)(C)[C@@H]1CC=C(C)C[C@@H]21 [Compound O-1991, N-{6-[(6aR,10aR)-1-hydroxy-6,6,9-trimethyl-6a,7,10,10a-tetrahydro-6H-benzo[c]chromen-3-yl]hex-4-yn-1-yl}ethane-sulfonamide]
decrease in feeding compared to vehicle ([1]; 56 mg/kg i.p.): 79%
dose that significantly decreased feeding [1]: 56 mg/kg
Ki ([2]; ref Wiley et al. (2011)): 30 nM
Ki ([3]; ref Wiley et al. (2011)): 1.4 nM
SA ED50 (95% confidence limits) ([4]; ref Wiley et al. (2011)): 2 (1–3) mg/kg
%MPE tail flick ED50 (95% confidence limits) [5]: 0.9 (0.6–1.4) mg/kg
RT ED50 (95% confidence limits) ([8]; ref Wiley et al. (2011)): 0.8 (0.4–1.6) mg/kg
profile in test battery [7]: exhibit agonist-like in vivo effects

CCS(=O)(=O)NCCCCC(C)(C)c1cc(O)c2c(c1)OC(C)(C)[C@@H]1CC=C(C)C[C@@H]21 [Compound O-2113, N-{5-[(6aR,10aR)-1-hydroxy-6,6,9-tri-methyl-6a,7,10,10a-tetrahydro-6H-benzo[c]chromen-3-yl]-5-methylhexyl}ethanesulfonamide]
decrease in feeding compared to vehicle ([1]; 30 mg/kg i.p.): 97%
dose that significantly decreased feeding [1]: 30 mg/kg
Ki ([2]; ref Wiley et al. (2011)): 1.7 nM
Ki ([3]; ref Wiley et al. (2011)): 0.08 nM
SA ED50 (95% confidence limits) ([4]; ref Wiley et al. (2011)): 0.4 (0.1–1.8) mg/kg
%MPE tail flick ED50 (95% confidence limits) [5]: 0.3 (0.1–1) mg/kg
RT ED50 (95% confidence limits) ([8]; ref Wiley et al. (2011)): 1.4 (0.3–4.6) mg/kg
profile in test battery [7]: exhibit agonist-like in vivo effects

Cc1c(C(=O)NN2CCCCC2)nn(-c2ccc(Cl)cc2Cl)c1-c1ccc(Cl)cc1 [Rimonabant, reference compound]
decrease in feeding compared to vehicle ([1]; 1 mg/kg i.p.): 47%
decrease in feeding compared to vehicle ([1]; 10 mg/kg i.p.): 41%
SA, % inhibition of activity of vehicle control group (maximum effect) ([4]; ref Wiley et al. (2012)): stim (10)
%MPE, maximum possible antinociceptive effect in tail flick (maximum effect) ([5]; ref Wiley et al. (2012)): inactive (10)
RT, change in rectal temperature compared to pre-drug (maximum effect) [8, 10]: inactive (10)

N-allyl carboxamide analog [Compound O-4373]
decrease in feeding compared to vehicle ([1]; 30 mg/kg i.p.): 73%
Ki ([2]; ref Wiley et al. (2012)): 147 nM
Ki ([3]; ref Wiley et al. (2012)): 1700 nM
SA ED50 (95% confidence limits) ([4]; ref Wiley et al. (2012)): 2.3 (1.0–5.2) mg/kg
RT ED50 (95% confidence limits) ([8]; ref Wiley et al. (2012)): 2.9 (2.1–5.0) mg/kg
RI ED50 (95% confidence limits) ([6]; i.v., ref Wiley et al. (2012)): 4.2 (2.5–7.0) mg/kg
